The values below come from patent publication US20250367182A1, “METHOD FOR INDUCING IN-SITU REGENERATION OF MAMMAL AND USE THEREOF” (INSTITUTE OF ZOOLOGY, CHINESE ACADEMY OF SCIENCES, priority 2022, published 2025).

“Also recorded” adds a separate entry of the source. Like-named read-outs stand apart in the source and are kept apart here.

In assay [1] the test system is 2 mm diameter mouse ear hole. The assay is described as follows: 2 mm ear hole trauma mouse model (ear hole closure). Further details: species or system C57BL/6 mice. To be noted: in vivo.
Assay [2] concerns bleomycin-induced lung fibrosis injury. The assay is described as follows: bleomycin-induced chronic injury model of lung fibrosis. The assay is classed as in vivo, C57B1/6 mice.
Assay [3] has as its system STING-TBK1-IRF3 signaling pathway / ISG genes in mouse primary fibroblasts and macrophages. The assay is described as follows: CHX-induced ISG gene expression in primary cells (RNA-seq, Ribo-seq, qPCR, immunofluorescence). The assay is classed as cell-based.
For assay [4], the system named is 4 mm diameter mouse ear hole. Further details: species or system mice. To be noted: in vivo.
The test system of another assay is scalded skin. Kind of assay: mouse skin scald model. The assay is classed as in vivo, mice. To be noted: CHX 20 mg/kg.
Assay [5] relates to protein translation process.
Where [6] appears, read: CHX 20 mg/kg, lung function testing.

In the case of `COc1ccc(C[C@H]2NC[C@H](O)[C@H]2OC(C)=O)cc1` [Ani, Anisomycin], the “healing of the 2 mm ear hole” value in assay [1] was “significantly promote the healing of the ear hole”.
Regarding `C[C@@H]1C[C@@H]([C@H](O)CC2CC(=O)NC(=O)C2)C(=O)[C@@H](C)C1` [CHX, 4-((R)-2-((1S,3S,5S)-3,5-dimethyl-2-oxocyclohexyl)-2-hydroxyethyl)piperidine-2,6-dione], in assay [1], the “HE staining of auricle tissue” value was “healed the tissue after damage and formed granulation tissue”; the “HE staining of auricle tissue: healing of trauma” value was “completely healed”; the “HE staining of wound site: regenerated tissues” value was “regeneration of tissues and tissue derivatives such as hair follicles, glands, cartilage, muscles and blood vessels”; the “KI67 immunohistochemical staining of auricle tissue (basal cells)” value is given as “expressed a large amount of KI67”. Moreover, in assay [1], the “closure of 2 mm ear hole wound” value is on record as “completely closed”, the “dose dependence of promotion of 2 mm ear hole healing” value was “dose-dependent”, the “healing condition of 2 mm ear hole (photograph)” value is “completely closed” and the “healing effect compared with Ani” value is on record as “better”. In assay [1], the “healing effect with different administration manners” value is “healing effects were produced; also recorded: different manners of administration had the effect of promoting regeneration” and the “healing of the 2 mm ear hole” value is listed as “significantly promote the healing of the ear hole”. The “closure of 2 mm diameter ear holes” value in assay [1] (ip) is recorded as “promoted the closure”. The compound further registered a survival rate in assay [2] (CHX 20 mg/kg i.p. every two days from 2 days after surgery, 18th day of treatment) of 75%. The body weight loss entry in assay [2] (CHX 20 mg/kg, ***P<0.001) was “significantly inhibited the body weight loss”. For the same compound, the “lung fibrosis (HE staining and Sirius red staining)” value in assay [2] (CHX 20 mg/kg, after 14 days of treatment) is recorded as “significantly inhibited”. The compound also had a body weight in assay [2] (CHX 20 mg/kg, after 15 days) of approximately 85%. In assay [2] (setting [6]), the respiratory rate result is reported as “significantly maintained normal” and the tidal volume entry is recorded as “significantly maintained normal”. Also, the “tissue integrity and fibrosis (HE staining)” value in assay [2] (CHX administration started 9 days after bleomycin injury (more severe model)) is “significantly restored tissue integrity and reduced fibrosis”. Further, in assay [2] (CHX-treated group), the “development-related genes (blood vessels, circulatory system), RNA-Seq” value is “upregulated” and the “genes related to respiratory system development, RNA-Seq” value is given as “promoted the upregulation”. For the same compound, the “fibrosis-related genes (extracellular matrix, collagen), RNA-Seq” value in assay [2] (CHX-treated group vs control after injury) is “significantly downregulate”. Moreover, in assay [3] (CHX, fibroblasts and macrophages), the “expression of classical ISGs (Mx2, Ifit1, Cxcl10, Ifih1), qPCR” value was “upregulate the expression of classical ISGs”. For the same compound, in assay [3] (CHX, in vitro), the “STING-TBK1-IRF3 signaling (perinuclear STING, nuclear IRF3), immunofluorescence” value is given as “activated ISGs by activating the STING-TBK1-IRF3 signaling pathway”. In addition, the “number of genes upregulated at both transcriptional and translational levels in both cell types” value in assay [3] (CHX, mouse primary fibroblasts and macrophages, RNA-seq and Ribo-seq) is 32 genes. Further, the “wound area of 4 mm ear hole” value in assay [4] is “significantly reduced”. Besides, in the assay with scalded skin, the “collagen accumulation (Sirius red staining)” value is reported as “reduced collagen accumulation”; the “skin tissue regeneration (histochemical staining)” value was “significantly promoted the regeneration of epidermis, hair follicles, glands, dermis, and blood vessels”. Moreover, the scar area entry with scalded skin (after 40 days of administration) is given as “significantly reduced scar area”.
On to `Cc1nn(CC(F)(F)F)cc1Nc1ncc(Br)c(NCc2ccc(S(N)(=O)=O)cc2)n1` [GSK8612], for which the “CHX-induced ear hole regeneration” value in assay [1] was “significantly inhibited”. In addition, the “expression of ISG genes induced by CHX” value in assay [3] (GSK8612 5 μM, CHX 1 μg/ml) was “significantly inhibited the expression of ISG genes”.
For the compound `O=C1N[C@@H]2C(=C[C@H](O)[C@@H](O)[C@H]2O)c2cc3c(c(O)c21)OCO3` [Narciclasine], in assay [1], the “healing of 2 mm ear holes” value is recorded as “significantly promote the healing of 2 mm ear holes”; the “regenerated tissues in closed ear holes (histochemical and Masson staining)” value is “could regenerate tissues such as hair follicles, glands, cartilage and muscles, and tissue derivatives”. In assay [5] (CHX as control), the “inhibition of protein translation (Puromycin incorporation)” value was “could significantly inhibit the protein translation process”.
On to `O=C1N[C@H]2[C@H](O)[C@H](O)[C@@H](O)[C@H](O)[C@@H]2c2cc3c(c(O)c21)OCO3` [Pancratistatin], for which, in assay [1], the “closure of 2 mm ear hole” value is recorded as “completely closed”; the “nature of the closure (HE and Masson staining)” value is given as “identified as a regeneration event”. Moreover, the “inhibition of protein translation (Puromycin incorporation)” value in assay [5] was “could significantly inhibit the protein translation process”.
